Measured values as given in EP4162932A1, “ANTIVIRAL HOP CONSTITUENTS” (HHV Hallertauer Hopfenveredelungsgesellschaft mbH, priority 2021, dated 2023).

What was measured:
[1] = molecular target: SARS-CoV-2 PLpro (Severe acute respiratory syndrome coronavirus 2, UniProt P0DTD1); assay: PLpro kinetic inhibition assay, cleavage of AMC peptide mimicking the C-terminus of human ISG15; type: biochemical
[2] = in vitro; conditions: human, Caco-2
[3] = system: icSARS-CoV-2-mNG; assay: microbe, parasite or virus in culture; type: cell-based, SARS-CoV-2; conditions: Severe acute respiratory syndrome coronavirus 2, Caco-2, 48 h; read-out: half maximal inhibitory concentration (IC50) on virus replication

| Compound | IC50 [1] | CC50 [2] | IC50 [3] |
| --- | --- | --- | --- |
| CC(C)=CCc1c(O)cc2c(c1O)C(=O)C[C@@H](c1ccc(O)cc1)O2 [6-PN, 6-prenylnaringenin] | 131 ± 10 µM | 22.6 µM | 7.26 µM |
| CC(C)=CCc1c(O)cc(O)c2c1O[C@H](c1ccc(O)cc1)CC2=O [8-PN, 8-prenylnaringenin] | 119 ± 13 µM | 54.9 µM | 23 µM |
| COc1cc(O)c(CC=C(C)C)c2c1C(=O)CC(c1ccc(O)cc1)O2 (centres unmarked) [IX, isoxanthohumol] | 59 ± 15 µM | 19.5 µM | 20.1 µM |
| COc1cc(O)c(CC=C(C)C)c(O)c1C(=O)/C=C/c1ccc(O)cc1 [XN, xanthohumol] |  | 12.3 µM | 3.28 µM |
